Measurements published in patent US20080268078A1, “Composition for inhibiting nitric oxide and/or prostaglandin E2 synthesis and method for inhibiting inflammation” (Yangsen Biotechnology Co., Ltd., priority 2007, published 2008).
Read-outs that look alike come from different tables or passages of the source.

What was measured:
Assay type in all cases: cell-based, murine
[1] = system: prostaglandin E2 synthesis in RAW 264.7 cells; experiment: Suppression of prostaglandin E2 synthesis (EIA) in LPS-stimulated RAW 264.7 cells; settings: Mus musculus, read-out: IC50 of prostaglandin E2 synthesis
Method: (§1) The murine macrophage/monocyte RAW 264.7 cells were obtained from the American Type Culture Collection (ATCC) and maintained in Dulbecco's modified Eagle's medium (DMEM) with 10% fetal bovine serum at 37° C. in 5% CO2 humidified air. In this example, cells were plated at a density of 10^6 cells/ml in 96-well plates for 24 hours, and then stimulated with LPS (100 ng/ml) in the presence of different concentrations of butylidene phthalide, citronellol, or geraniol. After 20 hours, the supernatant of the medium was collected and analyzed. In nitric oxide analysis, the concentration of butylidene phthalide was 250 μM, 500 μM, and 1000 μM, the concentration of citronellol was 50 μM, 500 μM, and 750 μM, and the concentration of geraniol was 50 μM, 500 μM, 750 μM, and 1000 μM, separately. In the control group, the cells were not treated with butylidene phthalide, citronellol, or geraniol. Because nitric oxide was unstable, nitrite was detected (Green et al., 1981; Kang et al., 1999a). 80 μl of the culture medium were mixed with an equal volume of Griess reagent (0.1% naphthylethylenediamine dihydrochloride and 1% sulfanilamide in 5% phosphoric acid), and then the absorbance at 550 nm was measured. The nitrite concentration was determined using a curve calibrated on sodium nitrite standards. […] Referring to FIGS. 1a-1c, butylidene phthalide, citronellol, and geraniol can suppress the synthesis of nitric oxide, wherein the suppression ability of citronellol was better than butylidene phthalide or geraniol, separately.
The same procedure carried out in Example 1 was repeated with the exception that the detection of the nitric oxide was changed to detect prostaglandin E2 by prostaglandin E2-monoclonal enzyme immunoassay kit (EIA, Cayman Chem., Ann Arbor, Mich.). The concentration of butylidene phthalide was 5 μM, 50 μM, 250 μM, 500 μM, and 1000 μM, the concentration of citronellol was 50 μM, 500 μM, and 750 μM and the concentration of geraniol was 50 μM, 500 μM, and 750 μM, separately. […]

[2] = system: nitric oxide synthesis in RAW 264.7 cells; experiment: Suppression of nitric oxide synthesis (nitrite, Griess reagent) in LPS-stimulated RAW 264.7 cells; settings: Mus musculus, read-out: IC50 (inhibitory concentration at 50%) of nitric oxide synthesis
Method: as §1

[3] = system: RAW264.7 cell; experiment: Cell viability assay (MTT); settings: 50 μM to 1000 μM (citronellol to 750 μM), LPS-stimulated, 20 hours
[4] = RAW264.7, RAW 264.7 cells, LPS 100 ng/ml, 20 hours, PGE2 EIA kit
[5] = RAW264.7, RAW 264.7 cells, LPS 100 ng/ml, 20 hours, nitrite by Griess reagent

| IC50 [1, 4] [µM] | IC50 [2, 5] [µM] | Compound | IC50 ([1]; RAW264.7, 20 h) [µM] | IC50 ([2]; RAW264.7, 20 h) [µM] | RAW264.7 cell viability by MTT assay [3] |
| --- | --- | --- | --- | --- | --- |
| 372 | 403 | CC(C)=CCC/C(C)=C/CO [geraniol] |  |  |  |
|  |  | CCCC=C1OC(=O)c2ccccc21 [butylidene phthalide] | 49.6 | 406 | did not affect cell viability |
| 26.9 | 295 | CC(C)=CCCC(C)CCO (stereo not shown) [citronellol] |  |  |  |
